Literature values as cited in patent EP2484728B1, “Ink composition, ink set, and image forming method” (Fujifilm Corporation, priority 2011, dated 2012).

Conditions: 25°C; Polymer Handbook values, otherwise calculated by the Fedors method

Row | Compound | SP value
1 | CCCCC(O)CO (centres unmarked) [1,2-Hexanediol] | 24.1 (MPa)^1/2
2 | OCCOCCO [DEG, Diethylene glycol] | DEG (30.6) (MPa)^1/2
3 | CCCCOCCOCCO [Diethylene glycol monobutyl ether] | 21.5 (MPa)^1/2
4 | COCCOCCO [Diethylene glycol monomethyl ether] | 22.4 (MPa)^1/2
5 | COC(C)COC(C)CO (centres unmarked) [Dipropylene glycol monomethyl ether] | 21.3 (MPa)^1/2
6 | CC(O)COC(C)COC(C)COC(C)COC(C)COC(C)COC(C)CO (centres unmarked) [Heptapropylene glycol] | 21.2 (MPa)^1/2
7 | CCOCC(C)O (centres unmarked) [Propylene glycol monoethyl ether] | 22.3 (MPa)^1/2
8 | CCCCOCCOCCOCCO [Triethylene glycol monobutyl ether] | 21.1 (MPa)^1/2
9 | CCOCCOCCOCCO [Triethylene glycol monoethyl ether] | 21.7 (MPa)^1/2
10 | COCCOCCOCCO [Triethylene glycol monomethyl ether] | 22.1 (MPa)^1/2
11 | COC(C)COC(C)COC(C)CO (centres unmarked) [Tripropylene glycol monomethyl ether] | 20.4 (MPa)^1/2
12 | CC(O)COC(C)COC(C)CO (centres unmarked) [Tripropylene glycol] | 24.7 (MPa)^1/2
13 | OCC(O)CO [glycerin] | glycerin (33.5) (MPa)^1/2
14 | Decaoxyethylene heptaoxypropylene butyl ether | 18.8 (MPa)^1/2
15 | Decaoxyethylene triacontaoxypropylene butyl ether | 18.7 (MPa)^1/2
16 | Dioxyethylene dioxypropylene butyl ether | 20.1 (MPa)^1/2

Row | Compound | SP value
17 | Dodecaoxyethylene dodecaoxypropylene butyl ether | 18.8 (MPa)^1/2
18 | POE (20) diglyceryl ether | 22.4 (MPa)^1/2
19 | POE (40) diglyceryl ether | 21.0 (MPa)^1/2
20 | POP (3) glycerylether | 26. 4 (MPa)^1/2
21 | POP (4) diglyceryl ether | 26.1 (MPa)^1/2
22 | POP (4) glyceryl ether | 24.9 (MPa)^1/2
23 | POP (5) glyceryl ether | 23.9 (MPa)^1/2
24 | POP (6) glyceryl ether | 23. 2 (MPa)^1/2
25 | POP (7) glyceryl ether | 22.6 (MPa)^1/2
26 | POP (8) glyceryl ether | 22.1 (MPa)^1/2
27 | POP (9) diglyceryl ether | 22.7 (MPa)^1/2
28 | POP (9) glyceryl ether | 21.7 (MPa)^1/2
29 | POP (10) glyceryl ether | 21.4 (MPa)^1/2
30 | POP (16) glyceryl ether | 20.2 (MPa)^1/2
31 | Pentacosaoxyethylene triacontaoxypropylene butyl ether | 18.8 (MPa)^1/2
32 | Pentaoxyethylene pentaoxypropylene butyl ether | 18.8 (MPa)^1/2
